The values that follow come from US11976080B1, “Benzofuro[3,2-c]chromen-6-one compounds as antibacterial agents” (King Faisal University, priority 2023, dated 2024).

Values after ≈ are worked out from the molar mass of the structure shown. Read-outs that look alike come from different tables or passages of the source.

The test system of test [1] is Pseudomonas aeruginosa MTCC 741. Description: In vitro antibacterial activity (CLSI dilution MIC). The following applies: MTCC741. It is filed as cell-based.
Test [2] deals with Bacillus subtilis MTCC 441. The test is described as above. Format: cell-based. The note with it: MTCC441.
For test [3], the system named is Klebsiella pneumonia MTCC 618. The test is described as above. Format: cell-based. The note with it: Klebsiella pneumoniae, MTCC618.
Test [4] has as its system Staphylococcus aureus ATCC BAA-1556 (MERSA resistant). The test is described as above. It is filed as cell-based. The note with it: ATCCBAA1556.
Test [5] deals with Escherichia coli MTCC 443. The description is as above. The following applies: MTCC443. It is filed as cell-based.
For test [6], the system named is Enterococcus faecium ATCC 35667. The description is as above. It is filed as cell-based. The following applies: ATCC35667.
In test [7] the test system is Mycobacterium tuberculosis H37Rv strain. Description: Anti-tubercular alamar blue microplate MIC assay. It is filed as cell-based. The following applies: 168 h, 7 days, read-out: anti-mycobacterial activity (MIC). In general terms: Resazurin is reduced to fluorescent resorufin, in cell work by metabolically active cells.
For test [8], the system named is Staphylococcus epidermidis. Description: In vitro antibacterial activity (CLSI dilution MIC). Format: cell-based.
Another test addresses T1, DNA gyrase from E. coli (Escherichia coli, UniProt P0AES4+P0AES6).
T1 construct: purchased Inspiralis
Description: Inspiralis E. coli DNA gyrase inhibition assay. Format: biochemical. The method, then: Inhibitory potencies were investigated utilizing the Inspiralis assay on streptavidin-coated 96-well microtiter plates. First, the plates were rehydrated with buffer (20 mM Tris-HCl with pH 7.6, 0.01% w/v BSA, 0.05% v/v Tween 20, 137 mM NaCl) and the biotinylated oligonucleotide was then immobilized. After washing off the unbound oligonucleotide, the enzyme test was performed. The reaction volume of 30 μL in buffer (35 mM Tris×HCl with pH 7.5, 4 mM MgCl2, 24 mM KCl, 2 mM DTT, 1.8 mM spermidine, 1 mM ATP, 6.5% w/v glycerol, 0.1 mg/mL albumin) contained 1.5 U of DNA gyrase from E. coli, 0.75 μg of relaxed pNO1 plasmid, and 3 μL solution of the inhibitor in 10% DMSO and 0.008% Tween 20. Reaction solutions were incubated at 37° C. for 30 min. After that, the TF buffer (50 mM NaOAc with pH 5.0, 50 mM NaCl and 50 mM MgCl2) was added to terminate the enzymatic reaction. After additional incubation for 30 min at rt, during which biotinoligonucleotide-plasmid triplex was formed, the unbound plasmid was washed off using TF buffer and SybrGOLD in T10 buffer (10 mM Tris HCl with pH 8.0 and 1 mM EDTA) was added. The fluorescence was measured with a microplate reader (BioTek Synergy H4, excitation: 485 nm, emission: 535 nm). Initial screening was done at 100 or 10 μM concentration of inhibitors. […] GraphPad Prism software was used to calculate the IC50 values. […]

The test system of test [9] is Staphylococcus aureus ATCC 29213. Description: In vitro antibacterial activity (CLSI dilution MIC). Format: cell-based. The following applies: ATCC29213.
Test [10] has as its system Enterococcus faecium ATCC 51559 (VRE resistant). The description is as above. It is filed as cell-based.

T1 sequence (P0AES4 whole entry, one chain of several): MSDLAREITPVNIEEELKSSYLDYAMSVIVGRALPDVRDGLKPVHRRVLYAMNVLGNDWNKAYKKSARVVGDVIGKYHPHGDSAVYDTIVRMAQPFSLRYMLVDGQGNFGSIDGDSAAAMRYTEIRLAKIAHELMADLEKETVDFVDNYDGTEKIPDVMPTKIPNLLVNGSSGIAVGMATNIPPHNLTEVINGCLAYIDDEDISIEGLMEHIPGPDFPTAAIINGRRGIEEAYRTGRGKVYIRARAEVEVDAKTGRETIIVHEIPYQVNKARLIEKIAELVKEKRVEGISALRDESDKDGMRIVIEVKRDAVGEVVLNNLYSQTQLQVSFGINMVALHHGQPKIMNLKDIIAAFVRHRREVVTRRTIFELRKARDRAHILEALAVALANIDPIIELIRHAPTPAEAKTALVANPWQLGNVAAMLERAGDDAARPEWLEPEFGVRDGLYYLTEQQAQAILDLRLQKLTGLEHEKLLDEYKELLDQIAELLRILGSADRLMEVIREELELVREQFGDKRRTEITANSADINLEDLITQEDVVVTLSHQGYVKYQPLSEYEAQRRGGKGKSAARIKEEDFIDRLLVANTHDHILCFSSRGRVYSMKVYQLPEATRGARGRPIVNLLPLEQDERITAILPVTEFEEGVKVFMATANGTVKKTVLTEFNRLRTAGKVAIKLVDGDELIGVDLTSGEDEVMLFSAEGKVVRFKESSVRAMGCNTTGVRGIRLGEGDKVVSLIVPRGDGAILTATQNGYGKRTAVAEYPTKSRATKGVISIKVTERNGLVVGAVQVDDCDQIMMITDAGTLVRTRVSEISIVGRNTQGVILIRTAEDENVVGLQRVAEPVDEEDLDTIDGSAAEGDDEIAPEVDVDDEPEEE

One may read the MIC as the lowest concentration that inhibits growth of the organism. As for `CN[C@H](CC(C)C)C(=O)N[C@H]1C(=O)N[C@@H](CC(N)=O)C(=O)N[C@H]2C(=O)N[C@H]3C(=O)N[C@H](C(=O)N[C@H](C(=O)O)c4cc(O)cc(O)c4-c4cc3ccc4O)[C@H](O)c3ccc(c(Cl)c3)Oc3cc2cc(c3O[C@@H]2O[C@H](CO)[C@@H](O)[C@H](O)[C@H]2O[C@H]2C[C@](C)(N)[C@H](O)[C@H](C)O2)Oc2ccc(cc2Cl)[C@H]1O` [Vancomycin, reference compound], the minimal inhibitory concentration (MIC) in test [1] (Pseudomonas aeruginosa) was greater than 128 mg/L; in test [2] (Bacillus subtilis), 0.5 mg/L (≈ 0.345 µM); in test [3], greater than 128 mg/L.
One may read the IC50 as the concentration at which inhibition is half-maximal. For `CC(=O)Nc1ccc2oc3c4ccc(CC(=O)O)cc4oc(=O)c3c2c1` [Compound 5, 2-(8-acetamido-6-oxo-6H-benzofuro[3,2-c]chromen-3-yl)acetic acid], the MIC turned out to be 1 mg/L (≈ 2.85 µM) in test [4]; 0.25 mg/L (≈ 0.712 µM) in test [1] (Pseudomonas aeruginosa MTCC 741, read-out: MIC); 0.55 mg/L (≈ 1.57 µM) in [2] (Bacillus subtilis MTCC 441, read-out: MIC); 0.75 mg/L (≈ 2.13 µM) in [5]; 0.55 mg/L (≈ 1.57 µM) in test [6]; 1 mg/L (≈ 2.85 µM) in test [7]. Also, the MIC was 2 mg/L (≈ 5.69 µM) in test [8]; 0.75 mg/L (≈ 2.13 µM) in test [3] (Klebsiella pneumonia MTCC 618, read-out: MIC); 1 mg/L (≈ 2.85 µM) in test [9]; 0.5 mg/L (≈ 1.42 µM) in test [10]. Further, the half-inhibitory concentration (IC50) at DNA gyrase from E. coli stood at 0.02 µM.
